Experimental data: patent US20110312992A1, “Inhibitors of C-Kit and Uses Thereof” (priority 2006, published 2011)
Where a name gives a salt, the structure may show the parent alone. Each block holds one compound with its values, some of them ahead of it.

Key:
[1] = target: c-Kit (Homo sapiens, UniProt P10721); test: c-Kit kinase enzymatic assay (tyrosine phosphorylation, UpState protocol); type: biochemical; conditions: FIG. 5
Experimental: IC50 values were determined for compounds of Examples 1, 10, 12 and 13 using a c-Kit kinase enzymatic assay. Phosphorylation of tyrosine was measured using a kinase assay protocol as provided by UpState Cell Signaling Solutions (Lake Placid, N.Y.). […] The results of the kinase assays validate the modeling and assessment of the structure/activity relationship data.

[2] = tested on: OCI/AML3; test: MTT-based cell proliferation/toxicity assay, OCI/AML3; design: species or system human; conditions: for ability to reduce cell line (dose response): OCI/AML3, FIG. 25
Source text: (§1) An MTT- (3,(4,5-dimethylthiazol-2-yl)-5-(3-carboxymethoxyphenyl)-2-(4-sulfophenyl)-2H-tetrazolium) based cell proliferation/toxicity assay system (Promega, Madison, Wis.) using cell lines, including the AML cell lines OCIM2 and OCI/AML3, was used to evaluate the effectiveness of the compounds as set forth herein in inhibition of c-Kit cellular activity.
(§2) AML cell lines OCIM2 and OCI/AML3 are human erythroleukemia lines and were provided by M. D. Minden, (Ontario Cancer Institute, Toronto, ON, Canada and as referenced in: Papayannopoulou et al., Blood (1988) 72:1029-1038; Wang et al., Leukemia (1989) 3: 236-249). Cells were maintained in RPMI 1640 culture medium (GIBCO, Grand Island, N.Y.) supplemented with 10% FCS (Flow Laboratories, McLean, Va.) and split twice weekly.
(§3) Briefly, cells were harvested at the logarithmic phase of their growth. They were then washed twice in RPMI 1640 containing 10% FCS and counted in a hemocytometer, and their viability was determined using 0.1% trypan blue staining. Equal numbers of viable cells (5×10^4 cells per well) were incubated in RPMI 1640 medium supplemented with 10% FCS alone or with the candidate drugs at increasing concentrations; the incubations were continued for 72 h in 96-well flat-bottomed plates (Linbro; Flow Laboratories, McLean, Va.) at 37° C. in a humidified 5% CO2 atmosphere. After incubation, 20 μl of CellTiter96 One Solution Reagent (Promega) was added to each well. The plates were then incubated for an additional 60 min at 37° C. in a humidified 5% CO2 atmosphere. Immediately after incubation, absorbance was read using a 96-well plate reader at a wavelength of 490 nm. Each data point was determined six times before analysis.
(§4) While OCIM2 and OCI/AML3 are both AML cell lines, c-Kit is expressed to a much higher degree in the OCI/AML3 line versus OCIM2, as determined by the responsiveness to stem cell factor (SCF), which mediates c-Kit receptor dimerization, activation, and autophosphorylation (Blume-Jensen, et al., (1991) EMBO Journal 10, 4121-8).

[3] = tested on: OCIM2; test: MTT-based cell proliferation/toxicity assay, OCIM2; design: species or system human
Source text: as §1, §2, §3, §4

[4] = tested on: HCM1.2 cell line; test: Systemic mastocytosis cell line with mutated c-Kit (position 816); type: cell-based; conditions: HCM1.2 (mutated c-Kit, position 816) vs HCM1.1 (wild-type), FIG. 12 and 13
Experimental: The effect of compound 1-[3-(4-fluoro)-1H-pyrazolo[3,4-b]pyridin-6-yl]-3,5-dimethoxy]benzene on two systemic mastocytosis cell lines with unmutated (wild-type) c-Kit (HCM1.1 cell line) and a cell line with mutated c-Kit (mutation at position 816) (HCM1.2 cell line) was also determined. Cell lines were obtained from Dr. Verstovsek (Leuk Res. 2006 Jun. 22, online prepublication).

[5] = tested on: OCI/AML3; test: Cell cycle analysis in OCI/AML3; type: cell-based, human; conditions: OCI/AML3, FIG. 15
[6] = tested on: OCI/AML3; test: Colony-forming cell proliferation, OCI/AML3; type: cell-based, human; conditions: OCI/AML3, FIG. 18
[7] = tested on: AML5; test: Inhibition of cell proliferation of AML1-AML6 in the presence of SCF; type: cell-based; conditions: AML5 among AML1-AML6, in the presence of SCF, FIG. 23
[8] = Inhibition of cell proliferation in the absence and presence of SCF (FIG. 22); type: cell-based; conditions: absence vs presence of externally introduced SCF

c-Kit, sequence (P10721 26-976): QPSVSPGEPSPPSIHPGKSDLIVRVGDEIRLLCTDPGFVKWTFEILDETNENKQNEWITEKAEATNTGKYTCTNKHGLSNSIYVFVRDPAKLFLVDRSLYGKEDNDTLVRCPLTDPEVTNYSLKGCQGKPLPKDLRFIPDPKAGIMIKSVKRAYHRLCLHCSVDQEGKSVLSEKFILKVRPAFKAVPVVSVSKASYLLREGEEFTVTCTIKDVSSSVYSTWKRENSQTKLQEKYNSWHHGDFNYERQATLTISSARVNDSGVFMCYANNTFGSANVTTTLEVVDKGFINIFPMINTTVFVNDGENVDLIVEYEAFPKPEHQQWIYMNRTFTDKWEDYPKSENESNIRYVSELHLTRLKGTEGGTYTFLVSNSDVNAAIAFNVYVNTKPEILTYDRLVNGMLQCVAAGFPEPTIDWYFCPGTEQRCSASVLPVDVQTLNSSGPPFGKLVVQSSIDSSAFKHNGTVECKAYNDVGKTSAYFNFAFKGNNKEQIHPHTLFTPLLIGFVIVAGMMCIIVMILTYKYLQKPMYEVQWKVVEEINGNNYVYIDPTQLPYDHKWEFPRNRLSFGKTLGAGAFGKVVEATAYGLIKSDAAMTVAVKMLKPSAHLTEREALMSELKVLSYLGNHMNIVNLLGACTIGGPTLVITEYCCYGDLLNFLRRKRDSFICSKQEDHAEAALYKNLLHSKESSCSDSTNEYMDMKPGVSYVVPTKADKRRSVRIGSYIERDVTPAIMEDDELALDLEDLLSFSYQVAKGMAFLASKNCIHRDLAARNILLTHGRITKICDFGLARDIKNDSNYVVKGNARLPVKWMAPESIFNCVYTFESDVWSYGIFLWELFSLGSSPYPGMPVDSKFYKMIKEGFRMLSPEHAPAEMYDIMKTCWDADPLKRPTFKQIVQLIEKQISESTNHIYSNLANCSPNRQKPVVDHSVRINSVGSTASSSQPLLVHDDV

SMILES: CC(=O)Nc1cccc(-c2ccc3c(-c4ccc(F)cc4)n[nH]c3n2)c1 [Example 3, 3-[3-(4-Fluorophenyl)-1H-pyrazolo[3,4-b]pyridin-6-yl]acetanilide]
ability to reduce cell line (dose response) [2]: same effective ability to reduce OCI/AML3 cell line

SMILES: COc1cc(OC)cc(-c2ccc3c(-c4ccc(F)cc4)n[nH]c3n2)c1 [Example 10]
IC50 [1]: > 100000 nM | sensitivity of proliferation ([2]; OCI/AML3, FIG. 16): quite sensitive | comparison with BMS-354825 and Gleevec ([2]; percent of control, FIG. 24): favorable comparison | sensitivity of proliferation ([3]; OCIM2, FIG. 16): less sensitive | proliferation of SCF-stimulated cells ([3]; OCIM2 with and without 50 ng/mL SCF, FIG. 9): inhibiting the proliferation | selectivity between mastocytosis cell lines [4]: selectivity for the cell line containing mutated c-Kit | cell cycle effect [5]: causes the accumulation of OCI/AML3 in Sub-G0 phase | colony-forming cell proliferation [6]: inhibits | inhibition of cell proliferation [7]: less effective inhibition | effect of SCF on inhibition of cell proliferation [8]: enhanced by the presence of externally introduced SCF

SMILES: Cc1ccc(NC(=O)c2ccc(CN3CCN(C)CC3)cc2)cc1Nc1nccc(-c2cccnc2)n1 [imatinib mesylate, reference compound]
response of cell line to prior art compound ([2]; OCI-AML3 expressing c-Kit, FIG. 6 / FIG. 10): resistant | response of cell line to prior art compound ([3]; OCIM2 uninduced, FIG. 10): resistant

Now from value to compound, other results behind:

IC50 [1]: ~95 nM
SMILES: COc1ccc(-c2n[nH]c3nc(-c4cccc(NC(C)=O)c4)ccc23)cc1 [Example 1, 3-{(4-Methyloxyphenyl)-1H-pyrazolo[4,3-b]pyridin-6-yl}acetanilide]
EC50 ([2]; Homo sapiens, OCI-AML-3, cell viability, OCI/AML3, 72 h, FIG. 6): ~100 nM | ability to reduce cell line (dose response) [2]: same effective ability to reduce OCI/AML3 cell line

IC50 [1]: ~1200 nM
SMILES: COc1ccc(-c2n[nH]c3nc(-c4cc(OC)cc(OC)c4)ccc23)cc1 [Example 12]
ability to reduce cell line (dose response) [2]: same effective ability to reduce OCI/AML3 cell line

IC50 [1]: ~3600 nM
SMILES: CCOC(=O)c1ccc(-c2n[nH]c3nc(-c4ccc(C(=O)NCCN(C)C)cc4)ccc23)cc1 [Example 13]
ability to reduce cell line (dose response) [2]: same effective ability to reduce OCI/AML3 cell line
